Assay results published in PubChem BioAssay AID2060600 (Molecular Pharmacology Branch, DTP, NCI, 2025).
Several values for one entry are separate records, joined by “and”; a condition that tells them apart may be missing. Identical values can stand only once.

Test system: 996289-038-R-J1-PDC complex spheroid viability
Test: Anticancer human tumor 996289-038-R-J1-PDC patient-derived colon adenocarcinoma cell line growth inhibition [CLK]
Settings: for viability, T/C: stronger effect = lower value
Summary of the method: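 Multi-cell-type spheroids combined patient-derived tumor cells with HUVEC endothelial cells and human mesenchymal stem cells. Paired agents were dosed in half-log steps down from about clinical Cmax, or from 10 microM where Cmax was unknown.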

[1] = curve of first compound, second compound 0.0316 µM
[2] = curve of first compound, second compound 0.1 µM
[3] = curve of first compound, second compound 0.316 µM
[4] = curve of first compound, second compound 1 µM
[5] = curve of first compound, second compound 3.16 µM
[6] = curve of first compound, second compound 10 µM
[7] = second compound 0.0316 µM, first compound 0.0316 µM
[8] = second compound 0.0316 µM, first compound 0.1 µM
[9] = second compound 0.0316 µM, first compound 0.316 µM
[10] = second compound 0.0316 µM, first compound 1 µM
[11] = second compound 0.1 µM, first compound 0.0316 µM
[12] = second compound 0.1 µM, first compound 0.1 µM
[13] = second compound 0.1 µM, first compound 0.316 µM
[14] = second compound 0.1 µM, first compound 1 µM
[15] = second compound 0.316 µM, first compound 0.0316 µM
[16] = second compound 0.316 µM, first compound 0.1 µM
[17] = second compound 0.316 µM, first compound 0.316 µM
[18] = second compound 0.316 µM, first compound 1 µM
[19] = second compound 1 µM, first compound 0.0316 µM
[20] = second compound 1 µM, first compound 0.1 µM
[21] = second compound 1 µM, first compound 0.316 µM
[22] = second compound 1 µM, first compound 1 µM
[23] = second compound 3.16 µM, first compound 0.0316 µM
[24] = second compound 3.16 µM, first compound 0.1 µM
[25] = second compound 3.16 µM, first compound 0.316 µM
[26] = second compound 3.16 µM, first compound 1 µM
[27] = second compound 10 µM, first compound 0.0316 µM
[28] = second compound 10 µM, first compound 0.1 µM
[29] = second compound 10 µM, first compound 0.316 µM
[30] = second compound 10 µM, first compound 1 µM
[31] = second compound 0.0316 µM, first compound 0.00316 µM
[32] = second compound 0.0316 µM, first compound 0.01 µM
[33] = second compound 0.1 µM, first compound 0.00316 µM
[34] = second compound 0.1 µM, first compound 0.01 µM
[35] = second compound 0.316 µM, first compound 0.00316 µM
[36] = second compound 0.316 µM, first compound 0.01 µM
[37] = second compound 1 µM, first compound 0.00316 µM
[38] = second compound 1 µM, first compound 0.01 µM
[39] = second compound 3.16 µM, first compound 0.00316 µM
[40] = second compound 3.16 µM, first compound 0.01 µM
[41] = second compound 10 µM, first compound 0.00316 µM
[42] = second compound 10 µM, first compound 0.01 µM
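Also: spheroids exposed to the agents for 7 days before readout.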

Compound: C=C(F)C(=O)N1CCN(c2nc(OCC3CCCN3C)nc3c2CCN(c2cccc4cccc(Cl)c24)C3)CC1CC#N (stereo not given) + CNC(=O)c1ccc(Nc2nc(OC3CCCC3)c3c(-c4ccc5nc(C)oc5c4)c[nH]c3n2)c(OC)c1
- IC50 [1]: 5200 nM
- IC50 [2]: 4820 nM
- IC50 [3]: 3790 nM
- IC50 [4]: 2280 nM
- IC50 [5]: 1500 nM
- IC50 [6]: 1400 nM
- viability, T/C [7]: 127%
- viability, T/C [8]: 129%
- viability, T/C [9]: 116%
- viability, T/C [10]: 121%
- viability, T/C (second compound 0.0316 µM, first compound 3.16 µM): 86.7%
- viability, T/C (second compound 0.0316 µM, first compound 10 µM): 1.33%
- viability, T/C [11]: 116%
- viability, T/C [12]: 115%
- viability, T/C [13]: 106%
- viability, T/C [14]: 107%
- viability, T/C (second compound 0.1 µM, first compound 3.16 µM): 77.9%
- viability, T/C (second compound 0.1 µM, first compound 10 µM): 1%
- viability, T/C [15]: 75.2%
- viability, T/C [16]: 72.2%
- viability, T/C [17]: 72.6%
- viability, T/C [18]: 75.7%
- viability, T/C (second compound 0.316 µM, first compound 3.16 µM): 57.4%
- viability, T/C (second compound 0.316 µM, first compound 10 µM): 2.02%
- viability, T/C [19]: 62.9%
- viability, T/C [20]: 62.9%
- viability, T/C [21]: 59.9%
- viability, T/C [22]: 64.7%
- viability, T/C (second compound 1 µM, first compound 3.16 µM): 45.1%
- viability, T/C (second compound 1 µM, first compound 10 µM): 0.61%
- viability, T/C [23]: 59.8%
- viability, T/C [24]: 59.4%
- viability, T/C [25]: 56.5%
- viability, T/C [26]: 56.8%
- viability, T/C (second compound 3.16 µM, first compound 3.16 µM): 38.2%
- viability, T/C (second compound 3.16 µM, first compound 10 µM): 1.01%
- viability, T/C [27]: 61.9%
- viability, T/C [28]: 59%
- viability, T/C [29]: 56.2%
- viability, T/C [30]: 57.2%
- viability, T/C (second compound 10 µM, first compound 3.16 µM): 33.5%
- viability, T/C (second compound 10 µM, first compound 10 µM): 0.31%

Compound: COc1c(OCCCN2CCOCC2)ccc2c3n(c(=NC(=O)c4cnc(N)nc4)nc12)CCN3
- viability, T/C (compound 0.00316 µM): 87.7% and 97.2%
- viability, T/C (compound 0.01 µM): 75.6% and 64.2%
- viability, T/C (compound 0.0316 µM): 66.9% and 64.2%
- viability, T/C (compound 0.1 µM): 45.9% and 46.1%
- viability, T/C (compound 0.316 µM): 31.9% and 30.1%
- viability, T/C (compound 1 µM): 20.4% and 22.4%
- IC50 (curve of compound): 83.6 nM and 64.5 nM

Compound: CCc1c2c(nc3ccc(O)cc13)-c1cc3c(c(=O)n1C2)COC(=O)[C@]3(O)CC + CNC(=O)c1ccc(Nc2nc(OC3CCCC3)c3c(-c4ccc5nc(C)oc5c4)c[nH]c3n2)c(OC)c1
- IC50 [1]: 203 nM
- IC50 [2]: 239 nM
- IC50 [3]: 72.3 nM
- IC50 [4]: 15.8 nM
- IC50 [5]: 8.28 nM
- IC50 [6]: 8.57 nM
- viability, T/C [31]: 115%
- viability, T/C [32]: 89.4%
- viability, T/C [7]: 63.3%
- viability, T/C [8]: 61.6%
- viability, T/C [9]: 48.8%
- viability, T/C [10]: 29.3%
- viability, T/C [33]: 110%
- viability, T/C [34]: 96.2%
- viability, T/C [11]: 69.9%
- viability, T/C [12]: 63.3%
- viability, T/C [13]: 49%
- viability, T/C [14]: 31.6%
- viability, T/C [35]: 77.4%
- viability, T/C [36]: 68.1%
- viability, T/C [15]: 56.2%
- viability, T/C [16]: 48.1%
- viability, T/C [17]: 35.6%
- viability, T/C [18]: 21.9%
- viability, T/C [37]: 60.8%
- viability, T/C [38]: 52.1%
- viability, T/C [19]: 46.6%
- viability, T/C [20]: 33.1%
- viability, T/C [21]: 25.1%
- viability, T/C [22]: 13.5%
- viability, T/C [39]: 55.5%
- viability, T/C [40]: 50.2%
- viability, T/C [23]: 39%
- viability, T/C [24]: 31.2%
- viability, T/C [25]: 22%
- viability, T/C [26]: 12.8%
- viability, T/C [41]: 54.6%
- viability, T/C [42]: 52%
- viability, T/C [27]: 38.9%
- viability, T/C [28]: 32.8%
- viability, T/C [29]: 23.7%
- viability, T/C [30]: 10.8%

Compound: C=CC(=O)Nc1cc(Nc2nccc(-c3cn(C)c4ccccc34)n2)c(OC)cc1N(C)CCN(C)C
- viability, T/C (compound 0.000949 µM): 99.1% and 105%
- viability, T/C (compound 0.003 µM): 106% and 96.1%
- viability, T/C (compound 0.00949 µM): 101% and 98.5%
- viability, T/C (compound 0.03 µM): 92.6% and 93.1%
- viability, T/C (compound 0.0949 µM): 93% and 92%
- viability, T/C (compound 0.3 µM): 81.2% and 69.9%
- IC50 (curve of compound): > 300 nM

Compound: CCN1CCN(Cc2ccc(Nc3ncc(F)c(-c4cc(F)c5nc(C)n(C(C)C)c5c4)n3)nc2)CC1 + CNC(=O)c1ccc(Nc2nc(OC3CCCC3)c3c(-c4ccc5nc(C)oc5c4)c[nH]c3n2)c(OC)c1
- IC50 [1]: > 1000 nM
- IC50 [2]: > 1000 nM
- IC50 [3]: > 1000 nM
- IC50 [4]: > 1000 nM
- IC50 [5]: > 1000 nM
- IC50 [6]: > 1000 nM
- viability, T/C [31]: 109%
- viability, T/C [32]: 103%
- viability, T/C [7]: 106%
- viability, T/C [8]: 97.6%
- viability, T/C [9]: 92.6%
- viability, T/C [10]: 96.2%
- viability, T/C [33]: 115%
- viability, T/C [34]: 111%
- viability, T/C [11]: 108%
- viability, T/C [12]: 91.8%
- viability, T/C [13]: 86.5%
- viability, T/C [14]: 86.7%
- viability, T/C [35]: 79%
- viability, T/C [36]: 81.2%
- viability, T/C [15]: 80.8%
- viability, T/C [16]: 75%
- viability, T/C [17]: 82.8%
- viability, T/C [18]: 76.8%
- viability, T/C [37]: 72.6%
- viability, T/C [38]: 70.2%
- viability, T/C [19]: 64.2%
- viability, T/C [20]: 66.9%
- viability, T/C [21]: 64.8%
- viability, T/C [22]: 77.1%
- viability, T/C [39]: 62.5%
- viability, T/C [40]: 62.1%
- viability, T/C [23]: 61.9%
- viability, T/C [24]: 64.9%
- viability, T/C [25]: 73.2%
- viability, T/C [26]: 65.9%
- viability, T/C [41]: 66%
- viability, T/C [42]: 63.9%
- viability, T/C [27]: 61.3%
- viability, T/C [28]: 62.2%
- viability, T/C [29]: 68.1%
- viability, T/C [30]: 59.8%
